Reference: ChEMBL document CHEMBL1201862, “PubChem BioAssay data set” (2004)
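Cultured in 96-well plates, cells were exposed to test compound for 48 hours across five concentrations. GI50 = concentration required for 50% inhibition of growth.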 Calls of active or inactive are those of the source. Rule as the data show it: active = GI50 up to about 1.1 µM and inactive = higher.

Columns and labels:
Experiment in all cases: NCI tumour cell line growth inhibition, 48 h
RPMI-8226 = tested on: RPMI-8226
NCI-H460 = tested on: NCI-H460
SN12C = tested on: SN12C
SF-295 = tested on: SF-295
HT-29 = tested on: HT-29
COLO 205 = tested on: COLO 205
DLD-1 = tested on: DLD-1
HOP-18 = tested on: HOP-18
HCT-116 = tested on: HCT-116
IGROV-1 = tested on: IGROV-1
CCRF-CEM = tested on: CCRF-CEM
HCC 2998 = tested on: HCC 2998
ACHN = tested on: ACHN
KM12 = tested on: KM12
SK-MEL-28 = tested on: SK-MEL-28
UACC-62 = tested on: UACC-62
OVCAR-3 = tested on: OVCAR-3
Malme-3M = tested on: Malme-3M
OVCAR-8 = tested on: OVCAR-8
OVCAR-5 = tested on: OVCAR-5
SR = tested on: SR
U-251 = tested on: U-251
OVCAR-4 = tested on: OVCAR-4
M19-MEL = tested on: M19-MEL
TK-10 = tested on: TK-10
HOP-62 = tested on: HOP-62
SK-MEL-5 = tested on: SK-MEL-5
NCI-H522 = tested on: NCI-H522
M14 = tested on: M14
SK-OV-3 = tested on: SK-OV-3
SK-MEL-2 = tested on: SK-MEL-2
DMS-273 = tested on: DMS-273
KM-20L2 = tested on: KM-20L2
HCT-15 = tested on: HCT-15
SF-539 = tested on: SF-539
CAKI-1 = tested on: CAKI-1
NCI-H23 = tested on: NCI-H23
HOP-92 = tested on: HOP-92
RXF 631 = tested on: RXF 631
UO-31 = tested on: UO-31
DMS-114 = tested on: DMS-114
UACC-257 = tested on: UACC-257
SNB-78 = tested on: SNB-78
K562 = tested on: K562
EKVX = tested on: EKVX
NCI-H226 = tested on: NCI-H226
SNB-75 = tested on: SNB-75
HL-60 = tested on: HL-60
SW-620 = tested on: SW-620
LOX IMVI = tested on: LOX IMVI
LXFL 529 = tested on: LXFL 529
A549 = tested on: A549
SNB-19 = tested on: SNB-19
786-0 = tested on: 786-0
MOLT-4 = tested on: MOLT-4

## Cc1cc2c(=O)cc(-c3ccc(C(=O)O)cc3)oc2c(C(=O)O)c1C
RPMI-8226
  GI50: > 100 µM (inactive)
NCI-H460
  GI50: > 100 µM (inactive)
SN12C
  GI50: > 100 µM (inactive)
SF-295
  GI50: > 100 µM (inactive)
HT-29
  GI50: > 100 µM (inactive)
COLO 205
  GI50: > 100 µM (inactive)
DLD-1
  GI50: > 100 µM (inactive)
HOP-18
  GI50: > 100 µM (inactive)
HCT-116
  GI50: > 100 µM (inactive)
IGROV-1
  GI50: > 100 µM (inactive)
CCRF-CEM
  GI50: > 100 µM (inactive)
HCC 2998
  GI50: > 100 µM (inactive)
ACHN
  GI50: > 100 µM (inactive)
KM12
  GI50: > 100 µM (inactive)
SK-MEL-28
  GI50: > 100 µM (inactive)
UACC-62
  GI50: > 100 µM (inactive)
OVCAR-3
  GI50: > 100 µM (inactive)
Malme-3M
  GI50: > 100 µM (inactive)
OVCAR-8
  GI50: > 100 µM (inactive)
OVCAR-5
  GI50: > 100 µM (inactive)
SR
  GI50: > 100 µM (inactive)
U-251
  GI50: > 100 µM (inactive)
OVCAR-4
  GI50: > 100 µM (inactive)
M19-MEL
  GI50: > 100 µM (inactive)
TK-10
  GI50: > 100 µM (inactive)
HOP-62
  GI50: > 100 µM (inactive)
SK-MEL-5
  GI50: > 100 µM (inactive)
NCI-H522
  GI50: > 100 µM (inactive)
M14
  GI50: > 100 µM (inactive)
SK-OV-3
  GI50: > 100 µM (inactive)
SK-MEL-2
  GI50: > 100 µM (inactive)
DMS-273
  GI50: > 100 µM (inactive)
KM-20L2
  GI50: > 100 µM (inactive)
HCT-15
  GI50: > 100 µM
SF-539
  GI50: > 100 µM (inactive)
CAKI-1
  GI50: > 100 µM (inactive)
NCI-H23
  GI50: > 100 µM (inactive)
HOP-92
  GI50: > 100 µM (inactive)
RXF 631
  GI50: > 100 µM (inactive)
UO-31
  GI50: > 100 µM (inactive)
DMS-114
  GI50: > 100 µM (inactive)
UACC-257
  GI50: > 100 µM (inactive)
SNB-78
  GI50: > 100 µM (inactive)
K562
  GI50: > 100 µM (inactive)
EKVX
  GI50: > 100 µM (inactive)
NCI-H226
  GI50: > 100 µM (inactive)
SNB-75
  GI50: > 100 µM (inactive)
HL-60
  GI50: > 100 µM (inactive)
SW-620
  GI50: > 100 µM (inactive)
LOX IMVI
  GI50: > 100 µM (inactive)
LXFL 529
  GI50: > 100 µM (inactive)
A549
  GI50: > 100 µM (inactive)
SNB-19
  GI50: > 100 µM (inactive)
786-0
  GI50: > 100 µM (inactive)
MOLT-4
  GI50: > 100 µM (inactive)
